Measurements as given in patent US10702506B2, “Small molecule inhibitors of pendrin ion exchange and pharmaceutical compositions” (THE REGENTS OF THE UNIVERSITY OF CALIFORNIA, priority 2016, dated 2020).

Tests used:
pendrin [1] = molecular target: T1, pendrin (Homo sapiens, UniProt O43511); assay: YFP (EYFP-HIF) fluorescence quenching assay of pendrin-mediated Cl− exchange (SCN−, I−, NO3−) in FRT cells; high-throughput screen; format: cell-based; design: expressed in transfected cells; conditions: FRT, 25 μM; read-out: Inh. (%), percentage inhibition of human pendrin
T1 sequence (O43511 1-780): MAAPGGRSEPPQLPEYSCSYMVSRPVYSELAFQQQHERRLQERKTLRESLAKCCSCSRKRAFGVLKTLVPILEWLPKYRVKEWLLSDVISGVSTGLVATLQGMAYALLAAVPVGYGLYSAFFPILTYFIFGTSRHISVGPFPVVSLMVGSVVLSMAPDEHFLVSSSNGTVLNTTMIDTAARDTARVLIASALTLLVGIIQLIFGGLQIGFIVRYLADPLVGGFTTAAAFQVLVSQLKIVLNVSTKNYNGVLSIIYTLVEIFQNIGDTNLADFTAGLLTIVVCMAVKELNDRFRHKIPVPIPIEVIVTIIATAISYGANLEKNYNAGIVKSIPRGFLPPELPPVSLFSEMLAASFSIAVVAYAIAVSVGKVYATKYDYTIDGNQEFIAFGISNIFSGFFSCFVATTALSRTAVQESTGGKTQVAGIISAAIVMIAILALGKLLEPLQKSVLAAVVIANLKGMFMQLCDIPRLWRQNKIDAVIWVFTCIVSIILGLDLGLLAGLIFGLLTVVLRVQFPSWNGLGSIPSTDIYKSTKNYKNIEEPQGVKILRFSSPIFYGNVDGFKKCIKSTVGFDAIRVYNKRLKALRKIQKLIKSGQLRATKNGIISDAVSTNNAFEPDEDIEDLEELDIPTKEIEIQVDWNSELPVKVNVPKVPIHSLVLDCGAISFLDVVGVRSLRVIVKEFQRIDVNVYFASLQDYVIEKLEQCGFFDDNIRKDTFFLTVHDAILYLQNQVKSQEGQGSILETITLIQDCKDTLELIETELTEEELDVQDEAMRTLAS
Procedure: Fischer rat thyroid (FRT) cells were cultured in Kaign's modified Ham's F12 medium supplemented with 10% FBS, 2 mM L-glutamine, 100 U/ml penicillin, […], […] myo-inositol and […] ascorbic acid. For high-throughput screening, FRT cells were stably transfected with EYFP-H148Q/I152L/F46L (EYFP-HIF; in pcDNA3.1/Hygro (+)), isolated using 0.25 mg/ml hygromycin B, and then transfected with pcDNA3.1 (+) encoding human pendrin with clonal cell lines selected using 0.5 mg/ml G418.
High-throughput screening was performed using a semi-automated screening platform (Beckman, Fullerton, Calif.) configured as described. FRT cells expressing human pendrin and EYFP-HIF were plated in 96-well black-walled, clear-bottom tissue culture plates (Corning, Corning, N.Y.) at a density of 20,000 cells/well, and cultured to confluence over 48 h. For screening, plates were washed twice with PBS (in mM: 137 NaCl, 2.7 KCl, 1.1 KH2PO4, 8.1 Na2HPO4, 0.9 CaCl2), 0.5 MgCl2) prior to addition of 100 μl PBS containing test compounds. Screening was done with ˜36,000 compounds from ChemDiv (San Diego, Calif.), TimTec (Newark, Del.), and Asinex (Winston-Salem, N.C.). After 10 min incubation with test compound, plates were transferred to a Tecan Infinite M1000 plate reader (Tecan, Morrisville, N.C.) for fluorescence assay of pendrin activity. The assay duration was 10 s with initial fluorescence intensity recorded for 2 s prior to addition of 100 μl of NaSCN-substituted PBS (137 mM NaCl replaced with NaSCN). All assay plates contained negative controls (DMSO). In some experiments Cl^− exchange for I^− or NO3^− was measured similarly using NaI and NaNO3-substituted PBS. Control experiments to measure basal ion transport rates were done in FRT cells expressing EYFP-HIF without pendrin.
FRT cells were chosen for screening due to their low intrinsic permeability to anions that are transported by pendrin. As depicted in FIGS. 1A and 2A, pendrin activity was assayed from the kinetics of the halide-sensitive fluorescent protein EYFP-HIF in response to addition of a SCN^−-containing solution to drive pendrin-mediated Cl^−/SCN^−. Pendrin inhibition reduces the rate of EYFP-HIF quenching. PDSinh-A01 land PDSinh-C01 decreased pendrin-mediated Cl^−/SCN^− and Cl^−/I^− exchange in a concentration-dependent manner, as measured by YFP fluorescence quenching. […] Because the only previously-described pendrin inhibitor is the weakly active compound niflumic acid, no positive control was included in the screening plates.

pendrin [2] = molecular target: T2, pendrin (Mus musculus, UniProt Q9R155); assay: In vitro measurement of furosemide effect on pendrin activity
T2 sequence (Q9R155 1-780): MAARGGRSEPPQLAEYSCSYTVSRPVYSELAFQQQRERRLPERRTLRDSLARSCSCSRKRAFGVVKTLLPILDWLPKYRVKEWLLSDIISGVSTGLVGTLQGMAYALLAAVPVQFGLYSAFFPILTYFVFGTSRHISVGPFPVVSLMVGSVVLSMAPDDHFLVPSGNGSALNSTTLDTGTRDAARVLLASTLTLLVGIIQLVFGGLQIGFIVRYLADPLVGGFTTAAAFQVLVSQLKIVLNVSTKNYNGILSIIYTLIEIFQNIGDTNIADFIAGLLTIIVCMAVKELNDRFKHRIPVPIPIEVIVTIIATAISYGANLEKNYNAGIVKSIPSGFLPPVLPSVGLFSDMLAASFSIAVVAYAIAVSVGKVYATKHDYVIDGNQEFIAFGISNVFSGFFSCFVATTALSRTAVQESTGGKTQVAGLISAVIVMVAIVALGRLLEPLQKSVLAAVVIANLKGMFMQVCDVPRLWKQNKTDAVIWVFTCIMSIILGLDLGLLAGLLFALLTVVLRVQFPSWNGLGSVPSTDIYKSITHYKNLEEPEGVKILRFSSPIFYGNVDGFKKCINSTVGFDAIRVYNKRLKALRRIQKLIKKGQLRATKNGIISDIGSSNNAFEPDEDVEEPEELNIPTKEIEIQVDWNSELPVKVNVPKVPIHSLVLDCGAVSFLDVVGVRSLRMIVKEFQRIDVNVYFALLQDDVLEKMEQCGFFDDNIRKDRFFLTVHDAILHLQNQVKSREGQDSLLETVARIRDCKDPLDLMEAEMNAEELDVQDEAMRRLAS

SMILES	inhibition at 25 µM (pendrin [1]) [%]	effect on pendrin activity (pendrin [2])
Cn1nc(COc2ccccc2)c2c1CCN(C(=O)Nc1ccc(Cl)cc1)C2	72	–
CSc1cccc(NC(=O)N2CCc3c(c(COc4ccccc4)nn3C)C2)c1	45	–
Cn1nc(COc2ccc(F)cc2)c2c1CCN(C(=O)Nc1cccc(C(F)(F)F)c1)C2	57	–
COc1ccc(NC(=O)N2CCc3c(c(COc4ccccc4)nn3C)C2)cc1F	69	–
Cn1nc(COc2ccc(F)cc2)c2c1CCN(C(=O)Nc1ccc(Cl)cc1)C2	66	–
Cc1ccc(NC(=O)N2CCc3c(c(COCc4ccc(Cl)cc4)nn3C)C2)cc1C	49	–
CCc1ccc(NC(=O)N2CCc3c(c(COc4ccccc4)nn3C)C2)cc1	54	–
Cc1ccc(NC(=O)N2CCc3c(c(COc4ccccc4)nn3C)C2)cc1	61	–
Cc1ccc(NC(=O)N2CCc3c(c(COCc4cccc(F)c4)nn3C)C2)cc1Cl	49	–
Cn1nc(COc2cccc(F)c2)c2c1CCN(C(=O)Nc1cccc(Cl)c1)C2	60	–
Cc1ccc(NC(=O)N2CCc3c(c(COCc4ccc(F)cc4Cl)nn3C)C2)cc1C	48	–
Cn1nc(COc2ccc(F)cc2)c2c1CCN(C(=O)Nc1ccc(F)c(Cl)c1)C2	54	–
Cc1ccc(NC(=O)N2CCc3c(c(COc4ccccc4)nn3C)C2)cc1C	64	–
CCc1ccc(NC(=O)N2CCc3c(c(COCc4ccc(F)cc4Cl)nn3C)C2)cc1	49	–
Cc1ccc(NC(=O)N2CCc3c(c(COc4ccc(F)cc4)nn3C)C2)cc1C	58	–
Cc1cc(-c2cc(S(=O)(=O)NC3CCCc4ccccc43)c(C)s2)[nH]n1 (centres unmarked)	53	–
CSc1ccc(NC(=O)N2CCc3c(c(COc4ccccc4)nn3C)C2)cc1	77	–
Cc1ccc(NC(=O)N2CCc3c(c(COc4ccc(F)cc4)nn3C)C2)cc1Cl	61	–
NS(=O)(=O)c1cc(C(=O)O)c(NCc2ccco2)cc1Cl [furosemide]	–	no effect
COc1ccc(NC(=O)N2CCc3c(c(COc4ccc(F)cc4)nn3C)C2)cc1F	53	–
